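96-well plates; 48 h exposure; 5 concentrations. Endpoints by linear interpolation between flanking doses. Not reached: highest tested concentration assigned. Here, GI50 denotes the concentration required for 50% inhibition of growth.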 Calls of active or inactive are those of the source. Rule as the data show it: active = GI50 up to about 1.1 µM and inactive = higher.
What was measured:
Experiment in all cases: DTP human tumour cell line panel, 48 h
MDA-MB-231 = system: MDA-MB-231
Hs-578T = system: Hs-578T
SNB-75 = system: SNB-75
KM12 = system: KM12
HCT-15 = system: HCT-15
BT-549 = system: BT-549
SN12C = system: SN12C
RXF 631 = system: RXF 631
SF-295 = system: SF-295
RXF 393 = system: RXF 393
EKVX = system: EKVX
UACC-62 = system: UACC-62
CAKI-1 = system: CAKI-1
M14 = system: M14
786-0 = system: 786-0
PC-3 = system: PC-3
UO-31 = system: UO-31
DLD-1 = system: DLD-1
LOX IMVI = system: LOX IMVI
UACC-257 = system: UACC-257
SK-OV-3 = system: SK-OV-3
HOP-92 = system: HOP-92
ACHN = system: ACHN
NCI-H226 = system: NCI-H226
XF498 = system: XF498
SK-MEL-28 = system: SK-MEL-28
OVCAR-4 = system: OVCAR-4
MDA-MB-435 = system: MDA-MB-435
LXFL 529 = system: LXFL 529
OVCAR-5 = system: OVCAR-5
SNB-19 = system: SNB-19
SK-MEL-5 = system: SK-MEL-5
CCRF-CEM = system: CCRF-CEM
DU-145 = system: DU-145
IGROV-1 = system: IGROV-1
A549 = system: A549
U-251 = system: U-251
SF-539 = system: SF-539
OVCAR-8 = system: OVCAR-8
HOP-18 = system: HOP-18
SF-268 = system: SF-268
MCF7 = system: MCF7
NCI-H23 = system: NCI-H23
TK-10 = system: TK-10
HCC 2998 = system: HCC 2998
SK-MEL-2 = system: SK-MEL-2
DMS-273 = system: DMS-273
A498 = system: A498
MDA-N = system: MDA-N
MOLT-4 = system: MOLT-4
K562 = system: K562
HCT-116 = system: HCT-116
NCI-H522 = system: NCI-H522
HL-60 = system: HL-60
T47D = system: T47D
SW-620 = system: SW-620
HT-29 = system: HT-29
DMS-114 = system: DMS-114
COLO 205 = system: COLO 205
SNB-78 = system: SNB-78
NCI/ADR-RES = system: NCI/ADR-RES
NCI-H460 = system: NCI-H460
OVCAR-3 = system: OVCAR-3
SR = system: SR
HOP-62 = system: HOP-62
RPMI-8226 = system: RPMI-8226
M19-MEL = system: M19-MEL
Malme-3M = system: Malme-3M

In the case of `CCCCC1NC=Nc2c1ccc1c2[nH]c2ccccc21` (stereo not drawn), the GI50 (MDA-MB-231) is reported as 1.73 µM (inactive), the GI50 (Hs-578T) is reported as 2.14 µM (inactive) and the GI50 (SNB-75) is reported as 4.02 µM (inactive). For the same compound, the GI50 (KM12) was 5.82 µM (inactive), the GI50 (HCT-15) was 2.39 µM and the GI50 (BT-549) was 2.02 µM (inactive). The GI50 (SN12C) was 2.89 µM (inactive), the GI50 (RXF 631) was 2.6 µM (inactive) and the GI50 (SF-295) was 2.48 µM (inactive). The GI50 (RXF 393) was 0.713 µM (active), the GI50 (EKVX) was 3.8 µM (inactive) and the GI50 (UACC-62) was 4.27 µM (inactive). The GI50 (CAKI-1) was 3.77 µM (inactive), the GI50 (M14) was 2.41 µM (inactive) and the GI50 (786-0) was 1.79 µM (inactive). For the same compound, the GI50 (PC-3) was 1.69 µM (inactive), the GI50 (UO-31) was 10.3 µM (inactive) and the GI50 (DLD-1) was 2.47 µM (inactive). For the same compound, the GI50 (LOX IMVI) was 1.94 µM (inactive), the GI50 (UACC-257) was 1.75 µM (inactive) and the GI50 (SK-OV-3) was 5.87 µM (inactive). The GI50 (HOP-92) was 3.94 µM (inactive), the GI50 (ACHN) was 3.61 µM (inactive) and the GI50 (NCI-H226) was 7.62 µM (inactive). For the same compound, the GI50 (XF498) was 1.89 µM (inactive), the GI50 (SK-MEL-28) was 10.3 µM (inactive) and the GI50 (OVCAR-4) was 2.7 µM (inactive). For the same compound, the GI50 (MDA-MB-435) was 1.88 µM (inactive), the GI50 (LXFL 529) was 1.88 µM (inactive) and the GI50 (OVCAR-5) was 4.63 µM (inactive). The GI50 (SNB-19) was 4.58 µM (inactive), the GI50 (SK-MEL-5) was 1.58 µM (inactive) and the GI50 (CCRF-CEM) was 1.67 µM (inactive). The GI50 (DU-145) was 2.6 µM (inactive), the GI50 (IGROV-1) was 3.08 µM (inactive) and the GI50 (A549) was 2.3 µM (inactive). For the same compound, the GI50 (U-251) was 2.95 µM (inactive), the GI50 (SF-539) was 3.05 µM (inactive) and the GI50 (OVCAR-8) was 2.03 µM (inactive). For the same compound, the GI50 (HOP-18) was 10.2 µM (inactive), the GI50 (SF-268) was 4 µM (inactive) and the GI50 (MCF7) was 1.55 µM (inactive). For the same compound, the GI50 (NCI-H23) was 1.73 µM (inactive), the GI50 (TK-10) was 5.71 µM (inactive) and the GI50 (HCC 2998) was 1.71 µM (inactive). For the same compound, the GI50 (SK-MEL-2) was 3.82 µM (inactive), the GI50 (DMS-273) was 1.7 µM (inactive) and the GI50 (A498) was 14.4 µM (inactive). For the same compound, the GI50 (MDA-N) was 1.75 µM (inactive), the GI50 (MOLT-4) was 2.05 µM (inactive) and the GI50 (K562) was 1.87 µM (inactive). The GI50 (HCT-116) was 1.91 µM (inactive), the GI50 (NCI-H522) was 1.84 µM (inactive) and the GI50 (HL-60) was 1.78 µM (inactive). For the same compound, the GI50 (T47D) was 1.45 µM (inactive), the GI50 (SW-620) was 1.95 µM (inactive) and the GI50 (HT-29) was 1.86 µM (inactive). For the same compound, the GI50 (DMS-114) was 1.76 µM (inactive), the GI50 (COLO 205) was 1.79 µM (inactive) and the GI50 (SNB-78) was 13 µM (inactive). The GI50 (NCI/ADR-RES) was 1.95 µM (inactive), the GI50 (NCI-H460) was 2.17 µM (inactive) and the GI50 (OVCAR-3) was 6.1 µM (inactive). For the same compound, the GI50 (SR) was 1.28 µM (inactive), the GI50 (HOP-62) was 5.32 µM (inactive) and the GI50 (RPMI-8226) was 1.84 µM (inactive). For the same compound, the GI50 (M19-MEL) was 3.26 µM (inactive) and the GI50 (Malme-3M) was 5.33 µM (inactive).
